In patent US6610665B1 (Smithkline Beecham Corporation, priority 1998, dated 2003):
Where a name gives a salt, the structure may show the parent alone.

Assays:
Type in all cases: cell-based
Settings in all cases: ratio to NECA
[1] = target: T1, adenosine 2a receptor (Homo sapiens, UniProt P29274); assay: Agonist activity, CHO cells transfected with human adenosine receptor and CRE-SPAP reporter; basal cAMP (A2a)
T1 construct: expressed in transfected cells; host or cells: CHO cells
Method: (§1) (1) Agonist activity against adenosine 2a, adenosine 1 and adenosine 3 receptor subtypes.
(§2) Agonist selectivity of compounds against other human adenosine receptors is determined using Chinese hamster ovary (CHO) cells transfected with the gene for the relevant human adenosine receptor following a method based on that of Castanon and Spevak, 1994. The CHO cells are also transfected with cyclic AMP response elements promoting the gene for secreted placental alkaline phosphatase (SPAP) (Wood, 1995). The effect of test compounds may be determined by their effects on basal levels of CAMP (A2a) or on forskolin-enhanced cAMP (A1 and A3) as reflected by changes in levels of SPAP. EC50 values for compounds may then be determined as a ratio to that of the non-selective agonist N-ethyl carboxamide adenosine (NECA).

[2] = target: T2, adenosine 3 receptor (Homo sapiens, UniProt P0DMS8); assay: Agonist activity, CHO cells transfected with human adenosine receptor and CRE-SPAP reporter; forskolin-enhanced cAMP (A3)
T2 construct: expressed in transfected cells; host or cells: CHO cells
T2 sequence (P0DMS8 1-318): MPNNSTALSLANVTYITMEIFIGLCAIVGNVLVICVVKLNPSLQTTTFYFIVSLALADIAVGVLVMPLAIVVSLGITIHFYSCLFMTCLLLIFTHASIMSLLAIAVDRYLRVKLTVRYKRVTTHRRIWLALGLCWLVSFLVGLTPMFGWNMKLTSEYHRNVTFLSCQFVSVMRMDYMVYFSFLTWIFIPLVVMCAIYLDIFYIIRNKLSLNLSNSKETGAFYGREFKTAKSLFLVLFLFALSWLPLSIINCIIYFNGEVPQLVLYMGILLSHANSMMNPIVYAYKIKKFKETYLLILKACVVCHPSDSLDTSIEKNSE
Method: as §1, §2

[3] = target: T3, adenosine 1 receptor (Homo sapiens, UniProt P30542); assay: Agonist activity, CHO cells transfected with human adenosine receptor and CRE-SPAP reporter; forskolin-enhanced cAMP (A1)
T3 construct: expressed in transfected cells; host or cells: CHO cells
T3 sequence (P30542 1-326): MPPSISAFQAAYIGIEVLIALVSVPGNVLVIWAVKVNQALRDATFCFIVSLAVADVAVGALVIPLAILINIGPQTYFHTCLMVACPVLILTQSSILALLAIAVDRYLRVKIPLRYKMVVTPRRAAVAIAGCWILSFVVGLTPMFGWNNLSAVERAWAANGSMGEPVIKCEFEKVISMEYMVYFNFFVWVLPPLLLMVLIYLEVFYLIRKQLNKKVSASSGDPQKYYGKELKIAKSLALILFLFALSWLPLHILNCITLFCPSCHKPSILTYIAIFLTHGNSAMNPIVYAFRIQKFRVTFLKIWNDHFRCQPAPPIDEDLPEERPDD
Method: as §1, §2

[4] = * data are minimum values since preparation was found, after testing, to contain an inactive impurity

T1 sequence (P29274 whole entry): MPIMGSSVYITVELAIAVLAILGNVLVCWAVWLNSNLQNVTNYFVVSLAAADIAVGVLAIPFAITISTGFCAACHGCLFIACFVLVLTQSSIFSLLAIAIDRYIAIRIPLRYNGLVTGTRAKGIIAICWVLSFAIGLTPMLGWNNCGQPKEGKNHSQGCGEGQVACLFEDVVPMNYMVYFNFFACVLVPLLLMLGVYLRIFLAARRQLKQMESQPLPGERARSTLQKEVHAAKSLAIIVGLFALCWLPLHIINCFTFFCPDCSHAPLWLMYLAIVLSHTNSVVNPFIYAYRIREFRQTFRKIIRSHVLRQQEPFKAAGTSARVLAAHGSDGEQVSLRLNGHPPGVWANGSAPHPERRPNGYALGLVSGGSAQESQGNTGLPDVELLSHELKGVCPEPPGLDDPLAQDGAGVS

| Compound | A2a, EC50 as a ratio of that of NECA [1, 4] | A3, EC50 as a ratio of that of NECA [2, 4] | A1, EC50 as a ratio of that of NECA [3, 4] | A2a, EC50 as a ratio of that of NECA ([1]; CHO cells, SPAP readout) | A3, EC50 as a ratio of that of NECA ([2]; CHO cells, SPAP readout) | A1, EC50 as a ratio of that of NECA ([3]; CHO cells, SPAP readout) |
| --- | --- | --- | --- | --- | --- | --- |
| CCc1noc([C@H]2O[C@@H](n3cnc4c(NC(CC)CC)nc(NCCN5CCOCC5)nc43)[C@H](O)[C@@H]2O)n1.O=CO [Example 19, (2S,3S,4R,5R)-2-(3-Ethyl-[1,2,4]oxadiazol-5-yl)-5-[6-(1-ethyl-propylamino)-2-(2-morpholin-4-yl-ethylamino)-purin-9-yl]-tetrahydro-furan-3,4-diol formate] | 34.52 | >694 | >5860 | – | – | – |
| CCc1noc([C@H]2O[C@@H](n3cnc4c(NC(CC)CC)nc(NCCN5CCCCC5)nc43)[C@H](O)[C@@H]2O)n1.O=CO [Example 20, (2S,3S,4R,5R)-2-(3-Ethyl-[1,2,4]oxadiazol-5-yl)-5-[6-(1-ethyl-propylamino)-2-(2-piperidin-1-yl-ethylamino)-purin-9-yl]-tetrahydro-furan-3,4-diol formate] | 17.08 | >694 | >=1853 | – | – | – |
| CCc1noc([C@H]2O[C@@H](n3cnc4c(NC(CC)CC)nc(NCCc5ccccn5)nc43)[C@H](O)[C@@H]2O)n1.O=CO [Example 21, (2S,3S,4R,5R)-2-(3-Ethyl-[1,2,4]oxadiazol-5-yl)-5-[6-(1-ethyl-propylamino)-2-(2-pyridin-2-yl-ethylamino)-purin-9-yl]-tetrahydro-furan-3,4-diol formate] | 9.39 | >303 | >5090 | – | – | – |
| CCC(CC)Nc1nc(NC2CCCC2)nc2c1ncn2[C@@H]1O[C@H](c2nc(C)no2)[C@@H](O)[C@H]1O.O=CO [Example 22] | – | – | – | 22.25 | >193 | 78.28 |
| CCc1noc([C@H]2O[C@@H](n3cnc4c(NC(CC)CC)nc(NC5CCCC5)nc43)[C@H](O)[C@@H]2O)n1.O=CO [Example 23, (2R,3R,4S,5S)-2-[2-Cyclopentylamino-6-(1-ethyl-propylamino)-purin-9-yl]-5-(3-ethyl-[1,2,4]oxadiazol-5-yl)-tetrahydro-furan-3,4-diol formate] | – | – | – | 12.72 | >163 | 17.02 |
| CCC(CC)Nc1nc(N[C@H]2CCC[C@@H]2O)nc2c1ncn2[C@@H]1O[C@H](c2nc(C)no2)[C@@H](O)[C@H]1O.O=CO [Example 24, (2R,3R,4S,5S)-2-[6-(1-Ethyl-propylamino)-2-(2S-hydroxy-cyclopent-(S)-ylamino)-purin-9-yl]-5-(3-methyl-[1,2,4]oxadiazol-5-yl)-tetrahydro-furan-3,4-diol formate] | – | – | – | 18.13 | >284 | >5264 |
| CCc1noc([C@H]2O[C@@H](n3cnc4c(NC(CC)CC)nc(N[C@H]5CCC[C@@H]5O)nc43)[C@H](O)[C@@H]2O)n1.O=CO [Example 25, (2S,3S,4R,5R)-2-(3-Ethyl-[1,2,4]oxadiazol-5-yl)-5-[6-(1-ethyl-propylamino)-2-(2S-hydroxy-cyclopent-(S)-ylamino)-purin-9-yl]-tetrahydro-furan-3,4-diol formate] | – | – | – | 19.35 | >163 | 515.35 |
| CCC(CC)Nc1nc(NC2CCNC2)nc2c1ncn2C1OC(c2nc(C)no2)C(O)C1O [Example 26, (2R,3R,4S,5S)-2-[6-(1-Ethyl-propylamino)-2-(pyrrolidin-3R-ylamino)-purin-9-yl]-5-(3-methyl-[1,2,4]oxadiazol-5-yl)-tetrahydro-furan-3,4-diol formate] | 5.18 | >284 | >5264 | – | – | – |
| CCc1noc(C2OC(n3cnc4c(NC(CC)CC)nc(NC5CCNC5)nc43)C(O)C2O)n1 [Example 27, (2S,3S,4R,5R)-2-(3-Ethyl-[1,2,4]oxadiazol-5-yl)-5-[6-(1-ethyl-propylamino)-2-(pyrrolidin-3R-ylamino)-purin-9-yl]-tetrahydro-furan-3,4-diol formate] | 10.5 | >284 | 263.14 | – | – | – |
| CCC(CC)Nc1nc(NC(CO)C(C)C)nc2c1ncn2C1OC(c2nc(C)no2)C(O)C1O [Example 28, (2R,3R,4S,5S)-2-[6-(1-Ethyl-propylamino)-2-(1S-hydroxymethyl-2-methyl-propylamino)-purin-9-yl]-5-(3-methyl-[1,2,4]oxadiazol-5-yl)-tetrahydro-furan-3,4-diol formate] | 5.49 | >284 | >5263 | – | – | – |
| CCc1noc([C@H]2O[C@@H](n3cnc4c(NC(CC)CC)nc(N[C@H]5CC[C@H](N)CC5)nc43)[C@H](O)[C@@H]2O)n1.O=CO [Example 29, (2R,3R,4S,5S)-2-[2-(trans-4-Amino-cyclohexylamino)-6-(1-ethyl-propylamino)-purin-9-yl]-5-(3-ethyl-[1,2,4]oxadiazol-5-yl)-tetrahydro-furan-3,4-diol formate] | 8.92 | >117 | 989.5 | – | – | – |
| Cc1noc(C2OC(n3cnc4c(N)nc(NCCc5ccccn5)nc43)C(O)C2O)n1.O=CO.O=CO (stereo not drawn) [Example 30] | 19.54 | >215 | 1460.7 | – | – | – |
| CCc1noc([C@H]2O[C@@H](n3cnc4c(NCC(c5ccccc5)c5ccccc5)nc(NCCN5CCOCC5)nc43)[C@H](O)[C@@H]2O)n1.O=CO [Example 31, (2R,3R,4S,5S)-2-[6-(2,2-Diphenyl-ethylamino)-2-(2-morpholin-4-yl-ethylamino)-purin-9-yl]-5-(3-ethyl-[1,2,4]oxadiazol-5-yl)-tetrahydro-furan-3,4-diol formate] | – | – | – | 30.6 | >262 | 6452 |
| CCc1noc([C@H]2O[C@@H](n3cnc4c(NCC(c5ccccc5)c5ccccc5)nc(NCCN5CCCCC5)nc43)[C@H](O)[C@@H]2O)n1.O=CO [Example 32, (2R,3R,4S,5S)-2-[6-(2,2-Diphenyl-ethylamino)-2-(2-piperidin-1-yl-ethylamino)-purin-9-yl]-5-(3-ethyl-[1,2,4]oxadiazol-5-yl)-tetrahydro-furan-3,4-diol formate] | – | – | – | 31.4 | >258 | 7521 |
| CCCc1noc([C@H]2O[C@@H](n3cnc4c(NCC(c5ccccc5)c5ccccc5)nc(NCCc5cn(C)cn5)nc43)[C@H](O)[C@@H]2O)n1.O=CO [Example 33, (2R,3R,4S,5S)-2-{6-(2,2-Diphenyl-ethylamino)-2-[2-(1-methyl-1H-imidazol-4-yl)-ethylamino]-purin-9-yl}-5-(3-propyl-[1,2,4]oxadiazol-5-yl)-tetrahydro-furan-3,4-diol formate] | 8.35 | >259 | ≧815.9 | – | – | – |
| Cc1noc(C2OC(n3cnc4c(NCC(c5ccccc5)c5ccccc5)nc(NCCc5c[nH]cn5)nc43)C(O)C2O)n1 [Example 34, (2R,3R,4S,5S)-2-{6-(2,2-Diphenyl-ethylamino)-2-[2-(1H-imidazol-4-yl)-ethylamino]-purin-9-yl}-5-(3-methyl-[1,2,4oxadiazol-5-yl)-tetrahydro-furan-3,4-diol formate] | 8.31 | 231.1 | 3270.8 | – | – | – |
| CCC(CC)Nc1nc(NCCN2CCCCC2)nc2c1ncn2C1OC(c2nc(C3CC3)no2)C(O)C1O [Example 35, (2S,3S,4R,5R)-2-(3-Cyclopropyl-[1,2,4]oxadiazol-5-yl)-5-[6-(1-ethyl-propylamino)-2-(2-piperidin-1-yl-ethylamino)-purin-9-yl]-tetrahydro-furan-3,4-diolldiformate] | – | – | – | 7.89 | >194 | 912.1 |
| CCC(CC)Nc1nc(NCCN2CCOCC2)nc2c1ncn2C1OC(c2nc(C3CC3)no2)C(O)C1O.O=CO.O=CO (stereo not drawn) [Example 36] | – | – | – | 20.13 | >194 | >9364 |
| CCC(CC)Nc1nc(NCCc2ccccn2)nc2c1ncn2[C@@H]1O[C@H](c2nc(C3CC3)no2)[C@@H](O)[C@H]1O.O=CO.O=CO [Example 37] | – | – | – | 49.45 | >87 | >10402 |
